Assay results from EP4342890A1, “PLATFORM AND SCAFFOLD FOR FAP TARGETING AGENTS” (Erasmus University Rotterdam Medical Center, priority 2022, dated 2024).

Tests used:
FAP^+ U-87 cells = assay: Cytotoxicity assay (resazurin) in U-87 cells; assay type: cell-based; conditions: single dose 1 µM, incubation time not stated
Method: In 96-well plates, U-87 cells (3 × 10^3) were seeded in each well and incubated at 37 °C and 5% CO2 for 24 h. The medium was removed and the wells were washed once with PBS. The cytotoxic drug (positive control) or the eFAP conjugate containing the drug were prepared at various concentrations (i.e., 1, 10, 100, 1000 nM) in DMEM culture medium, supplemented with 2 mM L-glutamine, 10% FBS, 50 units/mL penicillin, and 50 µg/mL streptomycin. Medium was used as a negative control. Cells were incubated with 100 µL of the tested compounds for 1, 24, 48, and 72 h. After incubation, medium was removed and each well was washed once with PBS. Next, 100 µL of 10% resazurin solution in culture medium was added to each well and incubated for 2.5 h. Fluorescence measurements were carried out using a microplate reader at 544 nm excitation and 590 nm emission.

[1] = LogD7.4 shake-flask method (n-octanol/PBS); assay type: physicochemical; conditions: radiolabeled compound; n-octanol/PBS pH 7.4; triplicates
Method: Distribution coefficients (LogD7.4 values) were determined by a shake-flask method. Sample containing the ^203Pb-labeled compound was added to a vial containing 600 µL PBS (pH 7.4) and 600 µL n-octanol. The vial was vortexed vigorously and then centrifuged for 10 min for phase separation. Samples of the octanol (200 µL) and aqueous (200 µL) phases were taken and counted on a PerkinElmer WIZARD 2480 gamma counter. LogD7.4 value was calculated by using the equation: LogD7.4 = log [(counts in octanol phase)/(counts in aqueous phase)]. All the experiments were performed in triplicates.

FAP = target: T1, FAP (Homo sapiens, UniProt Q12884); assay: In vitro inhibition assay on human FAP (Z-GP-AMC substrate); assay type: biochemical; conditions: enzymatic assay; 20 µM Z-GP-AMC, 20 nM FAP; unit inferred
T1 sequence (Q12884 1-760): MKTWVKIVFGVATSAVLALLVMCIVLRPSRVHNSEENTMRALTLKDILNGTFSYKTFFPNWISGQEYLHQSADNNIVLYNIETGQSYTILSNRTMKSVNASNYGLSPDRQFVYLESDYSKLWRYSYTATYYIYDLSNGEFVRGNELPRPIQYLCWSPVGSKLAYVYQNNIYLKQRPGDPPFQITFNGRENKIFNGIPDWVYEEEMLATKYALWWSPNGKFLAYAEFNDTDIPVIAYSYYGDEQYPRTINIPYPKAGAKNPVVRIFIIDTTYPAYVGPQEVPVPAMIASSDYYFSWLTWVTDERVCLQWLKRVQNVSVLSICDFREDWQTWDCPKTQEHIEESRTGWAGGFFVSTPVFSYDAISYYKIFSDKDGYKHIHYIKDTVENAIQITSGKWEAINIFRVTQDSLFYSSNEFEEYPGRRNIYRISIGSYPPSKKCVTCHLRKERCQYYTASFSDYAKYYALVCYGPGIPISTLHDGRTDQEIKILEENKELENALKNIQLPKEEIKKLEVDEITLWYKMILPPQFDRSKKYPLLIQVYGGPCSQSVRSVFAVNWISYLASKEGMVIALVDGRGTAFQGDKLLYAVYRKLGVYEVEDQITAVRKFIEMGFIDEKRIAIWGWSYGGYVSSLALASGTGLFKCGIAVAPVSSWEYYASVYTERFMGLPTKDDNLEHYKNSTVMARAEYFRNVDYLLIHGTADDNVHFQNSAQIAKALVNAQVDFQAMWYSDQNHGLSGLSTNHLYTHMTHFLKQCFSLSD
Method: Enzymatic activity of human FAP (hFAP) and mouse FAP (mFAP) on the Z-GP-AMC substrate was measured at room temperature on a Hidex microplate reader by monitoring the fluorescence at an excitation wavelength of 360 nm and an emission wavelength of 465 nm. The reaction mixture contained 20 µM substrate, 20 nM FAP, assay buffer (50 mM Tris, 100 mM NaCl, 1 mM EDTA, pH 7.4) and tested compound (serial dilution from 10^-6 to 10^-12) in a total volume of 50 µL.

U-87 tumor = assay: Near-infrared fluorescence imaging of U-87 tumor bearing mice; assay type: in vivo; conditions: 2 nmol intravenous
Text: Six-week-old male Balb/c nu/nu-specific and opportunistic pathogen-tree (SOPF) mice were housed in individually ventilated cages, with 4 mice per cage. Upon arrival, mice were acclimated for 1 week, with access to food and water ad libitum. Mice were subcutaneously inoculated on the right shoulder with U-87 or HT-1080.hFAP cells (1 × 10^6 cells). Xenografts were allowed to grow until they reached an appropriate size at the start of the studies. All animal experiments were approved by the Animal Welfare Committee of the Erasmus MC and were conducted in agreement with institutional guidelines (license number: AVD101002017867).
Evaluation of targeting performance of eFAP-17 in near-infrared fluorescence imaging of U-87 tumor bearing mice after intravenous injection of 2 nmol of the probe are given in Figure 9 showing A) NIRF imaging of U-87 tumor bearing mice at 1 h after intravenous injection of 2 nmol of CW800 (left, negative control) or eFAP-17 (right) and B) image of excised tumors 2.5 h post administration of CW800 (left) or eFAP-17 (right).

Row | Molecule | LogD7.4 [1] | IC50 (FAP) [nM] | further results
1 | COc1cc2cc(c1Cl)N(C)C(=O)C[C@H](OC(=O)[C@H](C)N(C)C(=O)CCS)[C@]1(C)O[C@H]1[C@H](C)[C@@H]1C[C@@](O)(NC(=O)O1)[C@H](OC)/C=C/C=C(\C)C2 [DM1, Mertansine] | – | – | cell viability (FAP^+ U-87 cells): 40%
2 | N#C[C@@H]1CC(F)(F)CN1C(=O)CNC(=O)c1ccnc2c(OCCCNC(=O)CCC(C(=O)O)N3CCN(CC(=O)O)CCN(CC(=O)O)CCN(CC(=O)O)CC3)cccc12 (stereo partly drawn) [eFAP-8, 2,2',2"-(10-(1-Carboxy-4-((3-((4-((2-((S)-2-cyano-4,4-difluoropyrrolidin-1-yl)-2-oxoethyl)carbamoyl)quinolin-8-yl)oxy)propyl)amino)-4-oxobutyl)-1,4,7,10-tetraazacyclododecane-1,4,7-triyl)triacetic acid] | -3.58 ± 0.09 | 1.7 ± 0.5 | –
3 | N#C[C@@H]1CC(F)(F)CN1C(=O)CNC(=O)c1ccnc2c(OCCCNC(=O)C3CCC(CNC(=O)CN4CCN(CC(=O)O)CCN(CC(=O)O)CCN(CC(=O)O)CC4)CC3)cccc12 (stereo partly drawn) [eFAP-9, 2,2',2"-(10-(2-(((4-((3-((4-((2-((S)-2-Cyano-4,4-difluoropyrrolidin-1-yl)-2-oxoethyl)carbamoyl)quinolin-8-yl)oxy)propyl)carbamoyl)cyclohexyl)methyl)amino)-2-oxoethyl)-1,4,7,10-tetraazacyclododecane-1,4,7-triyl)triacetic acid] | -3.47 ± 0.07 | 3.6 ± 2.3 | –
4 | N#C[C@@H]1CC(F)(F)CN1C(=O)CNC(=O)c1ccnc2c(OCCCNC(=O)CN3CCC(NC(=O)CN4CCN(CC(=O)O)CCN(CC(=O)O)CCN(CC(=O)O)CC4)CC3)cccc12 [eFAP-10, (S)-2,2',2"-(10-(2-((1-(2-((3-((4-((2-(2-Cyano-4,4-difluoropyrrolidin-1-yl)-2-oxoethyl)carbamoyl)quinolin-8-yl)oxy)propyl)amino)-2-oxoethyl)piperidin-4-yl)amino)-2-oxoethyl)-1,4,7,10-tetraazacyclododecane-1,4,7-triyl)triacetic acid] | -3.64 ± 0.02 | – | –
5 | N#C[C@@H]1CC(F)(F)CN1C(=O)CNC(=O)c1ccnc2c(OCCCNC(=O)COCC(=O)Nc3ccc(CNC(=O)CN4CCN(CC(=O)O)CCN(CC(=O)O)CCN(CC(=O)O)CC4)cc3)cccc12 [eFAP-11, (S)-2,2',2"-(10-(2-((4-(2-(2-((3-((4-((2-(2-Cyano-4,4-difluoropyrrolidin-1-yl)-2-oxoethyl)carbamoyl)quinolin-8-yl)oxy)propyl)amino)-2-oxoethoxy)acetamido)benzyl)amino)-2-oxoethyl)-1,4,7,10-tetraazacyclododecane-1,4,7-triyl)triacetic acid] | -3.34 ± 0.07 | 1.8 ± 0.8 | –
6 | N#C[C@@H]1CC(F)(F)CN1C(=O)CNC(=O)c1ccnc2c(OCCCNC(=O)CN3CCN(C(=O)CN4CCN(CC(=O)O)CCN(CC(=O)O)CCN(CC(=O)O)CC4)CC3)cccc12 [eFAP-12, (S)-2,2',2"-(10-(2-(4-(2-((3-((4-((2-(2-Cyano-4,4-difluoropyrrolidin-l-yl)-2-oxoethyl)carbamoyl)quinolin-8-yl)oxy)propyl)amino)-2-oxoethyl)piperazin-1-yl)-2-oxoethyl)-1,4,7,10-tetraazacyclododecane-1,4,7-triyl)triacetic acid] | -3.72 ± 0.08 | – | –
7 | N#C[C@@H]1CC(F)(F)CN1C(=O)CNC(=O)c1ccnc2c(OCCCNC(=O)CN3CCN(CCNC(=O)CN4CCN(CC(=O)O)CCN(CC(=O)O)CCN(CC(=O)O)CC4)CC3)cccc12 [eFAP-13, (S)-2,2',2"-(10-(2-((2-(4-(2-((3-((4-((2-(2-Cyano-4,4-difluoropyrrolidin-1-yl)-2-oxoethyl)carbamoyl)quinolin-8-yl)oxy)propyl)amino)-2-oxoethyl)piperazin-1-yl)ethyl)amino)-2-oxoethyl)-1,4,7,10-tetraazacyclododecane-1,4,7-triyl)triacetic acid] | -3.28 ± 0.15 | 1.7 ± 0.5 | –
8 | CC1(C)C(/C=C/C2=C(Oc3ccc(S(=O)(=O)O)cc3)C(=C/C=C3/N(CCCCCC(=O)NCCCOc4cccc5c(C(=O)NCC(=O)N6CC(F)(F)C[C@H]6C#N)ccnc45)c4ccc(S(=O)(=O)O)cc4C3(C)C)/CCC2)=[N+](CCCCS(=O)(=O)[O-])c2ccc(S(=O)(=O)O)cc21 [eFAP-17, 4-(2-((E)-2-((E)-3-(2-((E)-1-(6-((3-((4-((2-((S)-2-Cyano-4,4-difluoropyrrolidin-1-yl)-2-oxoethyl)carbamoyl)quinolin-8-yl)oxy)propyl)amino)-6-oxohexyl)-3,3-dimethyl-5-sulfoindolin-2-ylidene)ethylidene)-2-(4-sulfophenoxy)cyclohex-1-en-1-yl)vinyl)-3,3-dimethyl-5-sulfo-3H-indol-1-ium-1-yl)butane-1-sulfonate] | – | 5.6 ± 1.6 | accumulation in healthy tissues (U-87 tumor; NIRF imaging): low accumulation in healthy tissues; uptake in the FAP overexpressing tumor (U-87 tumor; NIRF imaging at 1 h, excised tumors 2.5 h): high uptake in the FAP overexpressing tumor
9 | (1^4S,1^6S,3^2S,3^3S,2R,4S,10E,12E,14R)-8^6-chloro-1^4-hydroxy-8^5,14-dimethoxy-3^3,2,7,10-tetramethyl-1^2,6-dioxo-7-aza-1(6,4)-oxazinana-3(2,3)-oxirana-8(1,3)-benzenacyclotetradecaphane-10,12-dien-4-yl N-(3-((3-((3-((4-((2-((S)-2-cyano-4,4-difluoropyrrolidin-1-yl)-2-oxoethyl)carbamoyl)quinolin-8-yl)oxy)propyl)amino)-3-oxopropyl)disulfaneyl)propanoyl)-N-methyl-L-alaninate [eFAP-18] | – | – | cell viability (FAP^+ U-87 cells): approximately 25%
